Source: paper PMC6150226, “Inhibition of Human Kallikrein 5 Protease by Triterpenoids from Natural Sources” (Molecules : A Journal of Synthetic Chemistry and Natural …, 2017)
Where two headings read alike, the source gives them in different places. Values belong to the compound of their own block, whether it stands above or below them.

Assays:
recombinant human KLK5 = molecular target: T1, recombinant human KLK5 (Homo sapiens, UniProt Q9Y337); test: KLK5 enzymatic assay (Boc-V-P-R-AMC fluorogenic substrate); format: biochemical
T1 construct: purchased R & D Systems Inc
T1 sequence (Q9Y337 23-293): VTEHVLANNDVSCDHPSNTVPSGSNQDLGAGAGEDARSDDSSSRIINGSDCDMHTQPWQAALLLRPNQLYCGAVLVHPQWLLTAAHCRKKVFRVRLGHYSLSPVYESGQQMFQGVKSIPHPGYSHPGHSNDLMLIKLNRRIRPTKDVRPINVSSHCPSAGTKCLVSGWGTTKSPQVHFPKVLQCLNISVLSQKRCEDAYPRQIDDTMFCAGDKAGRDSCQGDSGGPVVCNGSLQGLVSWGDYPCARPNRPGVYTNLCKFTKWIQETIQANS

[1] = Plasma pharmacokinetics of triterpenoids in rats after oral Jumihaidokuto (LC-MS/MS); format: in vivo; settings: rat; for Cmax: male, Sprague-Dawley, plasma
Protocol: Male Sprague–Dawley rats were purchased from Charles River Laboratories (Yokohama, Japan). The plasma pharmacokinetic study was performed according to the “Guidelines for the Care and Use of Laboratory Animals” of Tsumura & Co. Ethical approval for experimental procedures was obtained from the Laboratory Animal Committee of Tsumura & Co. Jumihaidokuto (JHT, Lot No. 332031900) was supplied by Tsumura & Co. (Tokyo, Japan) in the form of a powdered extract. JHT prepared in distilled water was orally administered to 16-h fasted rats at 2 g/10 mL/kg (n = 3). […] Plasma was obtained by centrifugation at 1700 g for 15 min at 4 °C and stored at −80 °C until further processing. […] Twenty-five microliters of methanol, an equal volume of atropine (2 ng/mL; Wako Pure Chemical Industries) as internal standard, and 750 µL of methanol were added to 200 µL of plasma samples, followed by mixing and centrifugation (7000× g, 5 min). For the preparation of the calibration curve, the same volumes of various concentrations of working solution were used instead of methanol. The supernatant was dried at 40 °C under a stream of nitrogen gas. The dried residue was dissolved in 50–60 μL of the initial mobile phase used for liquid chromatography–mass spectrometry with a tandem mass spectrometry system (LC-MS/MS; API4000 or Triple Quad 6500; AB Sciex, Tokyo, Japan) and then a 10- or 20-μL portion was injected into the LC-MS/MS system for the quantification of triterpenoids.

[2] = molecular target: T2, recombinant human pro-KLK7 activated by thermolysin (Kallikrein 7) (Homo sapiens, UniProt P49862); test: KLK7 enzymatic assay (fluorogenic peptide substrate II); format: biochemical
T2 construct: purchased R & D Systems Inc
T2 sequence (P49862 30-253): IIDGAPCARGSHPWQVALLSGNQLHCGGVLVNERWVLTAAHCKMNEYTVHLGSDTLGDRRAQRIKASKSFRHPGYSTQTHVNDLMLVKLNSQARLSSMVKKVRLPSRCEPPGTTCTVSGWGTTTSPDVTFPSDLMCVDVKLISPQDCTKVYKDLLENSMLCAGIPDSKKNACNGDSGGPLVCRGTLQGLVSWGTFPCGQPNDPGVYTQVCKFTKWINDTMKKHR

[3] = tested on: recombinant human trypsin; test: Trypsin enzymatic assay (Boc-V-P-R-AMC); format: biochemical; settings: for IC50: 0.78-100 μM, linear interpolation
Protocol: (§1) KLK5, KLK7, trypsin, and chymotrypsin C activities were evaluated according to the following methods supplied by R & D Systems Inc. (Minneapolis, MN, USA). The enzyme activity-dependent increase in the relative fluorescent unit (RFU) was measured, and the percentage of inhibition was calculated based on the formula: (1 − (A − B)/(C − B)) × 100, where A = RFU of test samples with enzymes, B = basal RFU without enzymes, and C = RFU of vehicle controls with enzymes.
To measure the trypsin activity, enzymatic reaction was performed at room temperature in 100 mM NaH2PO4 buffer (pH 8.0) containing 0.25 μg/mL recombinant human trypsin (Wako Pure Chemical Industries), 100 μM of Boc-V-P-R-AMC Fluorogenic Peptide Substrate, and 1.1% DMSO at final concentrations. […] was preincubated with test samples for 5 min, followed by the addition of peptide substrate. After incubating for 1 min, RFU was measured at Ex 380 nm/Em 460 nm. Leupeptin hemisulfate (42.1 μM) was used as a positive control.

[4] = molecular target: T3, recombinant human pro-chymotrypsin C activated by trypsin (Chymotrypsin C) (Homo sapiens, UniProt Q99895); test: Chymotrypsin C enzymatic assay (Suc-A-A-P-F-AMC); format: biochemical; settings: for IC50: 0.78-100 μM, linear interpolation
T3 construct: purchased R & D Systems Inc
T3 sequence (Q99895 30-268, other chains not shown): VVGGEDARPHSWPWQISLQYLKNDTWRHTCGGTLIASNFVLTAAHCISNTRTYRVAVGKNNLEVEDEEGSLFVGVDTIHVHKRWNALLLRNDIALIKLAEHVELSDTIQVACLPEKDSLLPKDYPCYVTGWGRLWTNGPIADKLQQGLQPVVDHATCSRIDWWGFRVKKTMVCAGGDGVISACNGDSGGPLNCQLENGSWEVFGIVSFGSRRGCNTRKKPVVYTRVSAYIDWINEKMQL
Protocol: as §1, with “enzymes. […] Activated chymotrypsin C (final 34.7 nM) was preincubated with test samples for 5 min, followed by the addition of peptide substrate. After incubating for 60 min, RFU was measured at Ex 380 nm/Em 460 nm.” for “enzymes.”

[5] = tested on: LL-37 production in normal human epidermal keratinocytes (NHEKs); format: cell-based
NHEKs = test: Cell growth test (XTT-based cell viability assay); parameters: species or system human; settings: ursolic acid 0.5 and 5 μM, tumulosic acid 1 and 10 μM; 24 h; with or without 10 μM cycloheximide
[6] = 10 μM test compound, KLK5 8.1 nM, substrate 100 μM, mean ± SEM of triplicate
[7] = 10 μM test compound, KLK5 8.1 nM, substrate 100 μM, mean ± SEM of triplicate, read-out: Anti-KLK5 Activity % Inhibition
[8] = dose-response experiment of Figure 2, read-out: IC50 anti-KLK5 activity
[9] = 2 g/kg, single oral Jumihaidokuto 2 g/10 mL/kg
[10] = single oral Jumihaidokuto 2 g/10 mL/kg

inhibition at 30 µM (recombinant human KLK5; 30 μM, KLK5 8.1 nM, substrate 100 μM, mean ± SEM of triplicate, read-out: Anti-KLK5 Activity % Inhibition): 16 ± 1.2%
Compound: CC1(C(=O)O)CCC2(C)CCC3(C)C(=CC(=O)C4C5(C)CCC(O)C(C)(C)C5CCC43C)C2C1 (stereo not drawn) [18β-Glycyrrhetinic acid]

Anti-KLK5 Activity % Inhibition (recombinant human KLK5; [6]): did not influence the KLK5 activity
inhibition at 10 µM (recombinant human KLK5; [7]): 5.5 ± 2.5%
Compound: C=C(C)[C@@H]1CC[C@]2(C(=O)O)CC[C@]3(C)[C@H](CC[C@@H]4[C@@]5(C)CC[C@H](O)C(C)(C)[C@@H]5CC[C@]43C)[C@@H]12 [Betulinic acid]

Compound: C=C(CC[C@@H](C(=O)O)C1[C@H](O)C[C@@]2(C)C3=CCC4C(C)(CCC(OC(C)=O)C4(C)C)C3=CCC12C)C(C)C (stereo partly drawn) [Dehydropachymic acid]
inhibition at 10 µM (recombinant human KLK5; [7]): 33.9 ± 3.7%

Compound: C=C(CC[C@@H](C(=O)O)[C@H]1[C@H](O)C[C@@]2(C)C3=CC[C@H]4C(C)(C)[C@@H](O)CC[C@]4(C)C3=CC[C@]12C)C(C)C [Dehydrotumulosic acid]
inhibition at 10 µM (recombinant human KLK5; [7]): -46.2 ± 2.7%

Anti-KLK5 Activity % Inhibition (recombinant human KLK5; [6]): did not influence the KLK5 activity
inhibition at 10 µM (recombinant human KLK5; [7]): -1.8 ± 2.8%
Compound: C[C@@H]1C[C@H]2[C@@H]3CCC4=CC(=O)C=C[C@]4(C)[C@@]3(F)[C@@H](O)C[C@]2(C)[C@@]1(O)C(=O)CO [Dexamethasone, reference compound]

Compound: C=C(CC[C@@H](C(=O)O)[C@H]1CC[C@@]2(C)C3=C(CC[C@]12C)[C@@]1(C)CC[C@H](O)C(C)(C)[C@@H]1CC3)C(C)C [Eburicoic acid]
inhibition at 10 µM (recombinant human KLK5; [7]): -51 ± 3%

Compound: CC(=O)N[C@@H](CC(C)C)C(=O)N[C@@H](CC(C)C)C(=O)N[C@H](C=O)CCCN=C(N)N.CC(=O)N[C@@H](CC(C)C)C(=O)N[C@@H](CC(C)C)C(=O)N[C@H](C=O)CCCN=C(N)N.O=S(=O)(O)O [Leupeptin hemisulfate, reference compound]
Anti-KLK5 Activity % Inhibition (recombinant human KLK5; 42.1 μM (positive control), KLK5 8.1 nM, mean ± SEM of triplicate): 96.9 ± 0.1%
Anti-KLK5 Activity % Inhibition (recombinant human KLK5; 42.1 μM (positive control), KLK5 8.1 nM, mean ± SEM of triplicate, listed as leupeptin hemisulfate): completely inhibited

IC50 (recombinant human KLK5; [8]): 6.4 µM
Compound: CC1(C)CC[C@]2(C(=O)O)CC[C@]3(C)C(=CC[C@@H]4[C@@]5(C)CC[C@H](O)C(C)(C)[C@@H]5CC[C@]43C)[C@@H]2C1 [Oleanolic acid]

Compound: C=C(CC[C@@H](C(=O)O)[C@H]1[C@H](O)C[C@@]2(C)C3=C(CC[C@]12C)[C@@]1(C)CC[C@H](OC(C)=O)C(C)(C)[C@@H]1CC3)C(C)C [Pachymic acid]
inhibition at 10 µM (recombinant human KLK5; [7]): 56.2 ± 1.5%
IC50 (recombinant human KLK5; [8]): 5.9 µM
Cmax [1, 9]: 2.1 ng/mL
time of Cmax [1, 10]: 6 h

inhibition at 10 µM (recombinant human KLK5; [7]): 8.8 ± 2%
Compound: CC1(C)CCC2(C(=O)O)C(C1)C1=CCC3C4(C)CC(O)C(O)C(CO)(CO)C4CCC3(C)[C@]1(C)C[C@H]2O (stereo partly drawn) [Platycodigenin]

inhibition at 10 µM (recombinant human KLK5; [7]): -6 ± 2.9%
Compound: C[C@@H]1O[C@@H](O[C@H]2[C@H](OC(=O)[C@]34CCC(C)(C)C[C@H]3C3=CC[C@@H]5[C@@]6(C)C[C@H](O)[C@H](O[C@@H]7O[C@H](CO)[C@@H](O)[C@H](O)[C@H]7O)C(CO)(CO)[C@@H]6CC[C@@]5(C)[C@]3(C)C[C@H]4O)OC[C@H](O)[C@@H]2O)[C@H](O)[C@H](O)[C@H]1O[C@@H]1OC[C@@H](O)[C@H](O[C@@H]2OC[C@](O)(CO)[C@H]2O)[C@H]1O [Platycodin D]

Anti-KLK5 Activity % Inhibition (recombinant human KLK5; [6]): did not influence the KLK5 activity
inhibition at 10 µM (recombinant human KLK5; [7]): 5.5 ± 2.3%
Compound: CC1(C)CCC2(C(=O)O)C(O)CC3(C)C(=CCC4C5(C)CC(O)C(O)C(C)(CO)C5CCC43C)C2C1 (stereo not drawn) [Polygalacic acid]

Anti-KLK5 Activity % Inhibition (recombinant human KLK5; [6]): 24.3 ± 2.6%
Compound: CC1(C)CCC2(CO)C(=C3C=CC4C5(C)CCC(O)C(C)(CO)C5CCC4(C)C3(C)CC2O)C1 (stereo not drawn) [Saikogenin A]

Anti-KLK5 Activity % Inhibition (recombinant human KLK5; [6]): −1.5 ± 3.6%
Compound: CC1(C)CCC2(CO)C(=C3C=CC4C5(C)CCC(O)C(C)(CO)C5CCC4(C)C3(C)CC2O)C1 (stereo not drawn) [Saikogenin D]

Compound: C[C@H]1O[C@@H](O[C@H]2CC[C@@]3(C)[C@@H](CC[C@]4(C)[C@@H]3C=C[C@]35OC[C@@]6(CCC(C)(C)C[C@H]63)[C@@H](O)C[C@]54C)[C@]2(C)CO)[C@H](O)[C@@H](O[C@@H]2O[C@H](CO)[C@@H](O)[C@H](O)[C@H]2O)[C@H]1O [Saikosaponin a]
inhibition at 10 µM (recombinant human KLK5; [7]): 4.3 ± 0.7%

inhibition at 10 µM (recombinant human KLK5; [7]): 39.6 ± 1.6%
IC50 (recombinant human KLK5; [8]): 14.4 µM
Compound: C[C@H]1O[C@@H](O[C@H]2CC[C@@]3(C)[C@@H](CC[C@]4(C)[C@@H]3C=CC3=C5CC(C)(C)CC[C@]5(CO)[C@@H](O)C[C@]34C)[C@]2(C)CO)[C@H](O)[C@@H](O[C@@H]2O[C@H](CO)[C@@H](O)[C@H](O)[C@H]2O)[C@H]1O [Saikosaponin b1]

Anti-KLK5 Activity % Inhibition (recombinant human KLK5; [6]): 21.1 ± 1.4%
Compound: CC1OC(OC2CCC3(C)C(CCC4(C)C3C=CC3=C5CC(C)(C)CCC5(CO)C(O)CC34C)C2(C)CO)C(O)C(OC2OC(CO)C(O)C(O)C2O)C1O (stereo not drawn) [Saikosaponin b2]

inhibition at 10 µM (recombinant human KLK5; [7]): 4.1 ± 1.6%
Compound: CC1OC(OC2C(COC3OC(CO)C(O)C(O)C3O)OC(OC3CCC4(C)C(CCC5(C)C4C=CC46OCC7(CCC(C)(C)CC74)[C@@H](O)C[C@@]56C)C3(C)C)C(O)C2O)C(O)C(O)C1O (stereo partly drawn) [Saikosaponin c]

Compound: CC1OC(OC2CCC3(C)C(CCC4(C)C3C=CC35OCC6(CCC(C)(C)CC63)C(O)CC45C)C2(C)CO)C(O)C(OC2OC(CO)C(O)C(O)C2O)C1O (stereo not drawn) [Saikosaponin d]
inhibition at 10 µM (recombinant human KLK5; [7]): -10.4 ± 3.5%

Compound: C=C(CC[C@@H](C(=O)O)[C@H]1[C@H](O)C[C@@]2(C)C3=C(CC[C@]12C)[C@@]1(C)CC[C@H](O)C(C)(C)[C@@H]1CC3)C(C)C [Tumulosic acid]
inhibition at 10 µM (recombinant human KLK5; [7]): 36 ± 1.9%
inhibition at 100 µM (recombinant human KLK5; 100 μM, read-out: Inhibition % at 100 μM, Kallikrein 5): 58.7 ± 0.2%
IC50 (recombinant human KLK5; [8]): 19.3 µM
IC50 (recombinant human KLK5; selectivity experiment of Table 2, 0.78-100 μM, linear interpolation, read-out: IC50 Kallikrein 5): 14.8 µM
inhibition at 100 µM [2]: 19.5 ± 1.5%
IC50 ([2]; 0.78-100 μM, linear interpolation): > 100 µM
Inhibition % at 100 μM, Trypsin [3]: 73.2 ± 1.6%
IC50 ([3]; listed as Tumulosic Acid): 45.3 µM
IC50 ([3]; listed as tumulosic acid): 10.5 µM
Inhibition % at 100 μM, Chymotrypsin C ([4]; 100 μM): 4.1 ± 5.2%
inhibition at 100 µM ([4]; 100 μM): 4%
IC50 [4]: > 100 µM
amount of LL-37 in NHEK lysates [5]: decreased
cytotoxic effect on cell proliferation (NHEKs): No cytotoxic effect
Cmax [1, 9]: 116 ng/mL
Cmax ([1]; single oral Jumihaidokuto 2 g/kg, converted from 116.1 ng/mL): 238 nM
time of Cmax [1, 10]: 2 h

Compound: C[C@H]1[C@H](C)CC[C@]2(C(=O)O)CC[C@]3(C)C(=CC[C@@H]4[C@@]5(C)CC[C@H](O)C(C)(C)[C@@H]5CC[C@]43C)[C@H]12 [Ursolic acid]
inhibition at 10 µM (recombinant human KLK5; read-out: Anti-KLK5 Activity % Inhibition): 54.6 ± 1.3%
Inhibition % at 100 μM, Trypsin [3]: 76.9 ± 3.5%
IC50 ([3]; listed as Ursolic Acid): 14.8 µM
IC50 ([3]; listed as ursolic acid): 10.5 µM
inhibition at 100 µM ([4]; 100 μM): 35.3 ± 2.9%
IC50 [4]: > 100 µM
amount of LL-37 in NHEK lysates ([5]; ursolic acid 0.5 and 5 μM, tumulosic acid 1 and 10 μM, 23 h, in the presence of 10 μM cycloheximide): decreased
